The record followed here is ChEMBL document CHEMBL5154867, “Baylis-Hillman Adducts as a Versatile Module for Constructing Fluorogenic Release System” (J Med Chem, 2022).

Data set [1] can be described thus: Prodrug activation in PBS at pH 7.4 assessed as drug release by measuring maximal fluorescence change at 10 uM in presence of 1 mM GSH measured immediately relative to control. Particulars: buffer, pH 7.4, 10 µM.
The nature of data set [2]: Prodrug activation in PBS at pH 7.4 assessed as drug release by measuring maximal fluorescence change at 10 uM in presence of 1 mM GSH measured after 10 mins relative to control. Conditions: buffer, pH 7.4, 10 min.
Data set [3] can be described thus: Prodrug activation in PBS at pH 7.4 assessed as drug release by measuring maximal fluorescence change at 10 uM in presence of 1 mM GSH measured after 20 mins relative to control. Particulars: buffer, pH 7.4, 20 min.
The nature of data set [4]: Prodrug activation in PBS at pH 7.4 assessed as drug release by measuring maximal fluorescence change at 10 uM in presence of 1 mM GSH measured after 30 mins relative to control. Particulars: buffer, pH 7.4, 0.5 h.
Data set [5] is described as follows: Prodrug activation in PBS at pH 7.4 assessed as drug release by measuring maximal fluorescence change at 10 uM in presence of 1 mM GSH measured after 40 mins relative to control. Particulars: buffer, pH 7.4, 40 min.
Data set [6] in a line: Prodrug activation in PBS at pH 7.4 assessed as drug release by measuring maximal fluorescence change at 10 uM in presence of 1 mM GSH measured after 50 mins relative to control. Conditions: buffer, pH 7.4, 50 min.
Data set [7] is described as follows: Prodrug activation in PBS at pH 7.4 assessed as drug release by measuring maximal fluorescence change at 10 uM in presence of 1 mM GSH measured after 60 mins relative to control. Conditions: buffer, pH 7.4, 1 h.
A short description of data set [8]: Prodrug activation in PBS at pH 7.4 assessed as drug release at 10 uM in presence of 1 mM GSH measured immediately by HPLC analysis relative to control. Conditions: buffer, pH 7.4, 10 µM.
Data set [9] in a line: Prodrug activation in PBS at pH 7.4 assessed as drug release at 10 uM in presence of 1 mM GSH measured after 10 mins by HPLC analysis relative to control. Conditions: buffer, pH 7.4, 10 min.
A short description of data set [10]: Prodrug activation in PBS at pH 7.4 assessed as drug release at 10 uM in presence of 1 mM GSH measured after 20 mins by HPLC analysis relative to control. Conditions: buffer, pH 7.4, 20 min.
Data set [11] is described as follows: Prodrug activation in PBS at pH 7.4 assessed as drug release at 10 uM in presence of 1 mM GSH measured after 30 mins by HPLC analysis relative to control. Conditions: buffer, pH 7.4, 0.5 h.
Data set [12] in a line: Prodrug activation in PBS at pH 7.4 assessed as drug release at 10 uM in presence of 1 mM GSH measured after 40 mins by HPLC analysis relative to control. Particulars: buffer, pH 7.4, 40 min.
The nature of data set [13]: Prodrug activation in PBS at pH 7.4 assessed as drug release at 10 uM in presence of 1 mM GSH measured after 50 mins by HPLC analysis relative to control. Conditions: buffer, pH 7.4, 50 min.
Data set [14] is described as follows: Prodrug activation in PBS at pH 7.4 assessed as drug release at 10 uM in presence of 1 mM GSH measured after 60 mins by HPLC analysis relative to control. Conditions: buffer, pH 7.4, 1 h.
Data set [15] in a line: Prodrug activation in PBS at pH 7.4 assessed as drug release by measuring maximal fluorescence change at 10 uM in presence of 2 mM GSH measured immediately relative to control. Conditions: buffer, pH 7.4, 10 µM.
Data set [16] in a line: Prodrug activation in PBS at pH 7.4 assessed as drug release by measuring maximal fluorescence change at 10 uM in presence of 2 mM GSH measured after 10 mins relative to control. Conditions: buffer, pH 7.4, 10 min.
Data set [17] can be described thus: Prodrug activation in PBS at pH 7.4 assessed as drug release by measuring maximal fluorescence change at 10 uM in presence of 2 mM GSH measured after 20 mins relative to control. Conditions: buffer, pH 7.4, 20 min.
Data set [18] can be described thus: Prodrug activation in PBS at pH 7.4 assessed as drug release by measuring maximal fluorescence change at 10 uM in presence of 2 mM GSH measured after 30 mins relative to control. Conditions: buffer, pH 7.4, 0.5 h.
Data set [19] is described as follows: Prodrug activation in PBS at pH 7.4 assessed as drug release by measuring maximal fluorescence change at 10 uM in presence of 2 mM GSH measured after 40 mins relative to control. Conditions: buffer, pH 7.4, 40 min.
Data set [20] can be described thus: Prodrug activation in PBS at pH 7.4 assessed as drug release by measuring maximal fluorescence change at 10 uM in presence of 2 mM GSH measured after 50 mins relative to control. Conditions: buffer, pH 7.4, 50 min.
The nature of data set [21]: Prodrug activation in PBS at pH 7.4 assessed as drug release by measuring maximal fluorescence change at 10 uM in presence of 2 mM GSH measured after 60 mins relative to control. Conditions: buffer, pH 7.4, 1 h.
Data set [22] is described as follows: Prodrug activation in PBS at pH 7.4 assessed as drug release at 10 uM in presence of 2 mM GSH measured immediately by HPLC analysis relative to control. Particulars: buffer, pH 7.4, 10 µM.
Data set [23] is described as follows: Prodrug activation in PBS at pH 7.4 assessed as drug release at 10 uM in presence of 2 mM GSH measured after 10 mins by HPLC analysis relative to control. Particulars: buffer, pH 7.4, 10 min.
Data set [24] is described as follows: Prodrug activation in PBS at pH 7.4 assessed as drug release at 10 uM in presence of 2 mM GSH measured after 20 mins by HPLC analysis relative to control. Conditions: buffer, pH 7.4, 20 min.
Data set [25] in a line: Prodrug activation in PBS at pH 7.4 assessed as drug release at 10 uM in presence of 2 mM GSH measured after 30 mins by HPLC analysis relative to control. Particulars: buffer, pH 7.4, 0.5 h.
A short description of data set [26]: Prodrug activation in PBS at pH 7.4 assessed as drug release at 10 uM in presence of 2 mM GSH measured after 40 mins by HPLC analysis relative to control. Conditions: buffer, pH 7.4, 40 min.
The nature of data set [27]: Prodrug activation in PBS at pH 7.4 assessed as drug release at 10 uM in presence of 2 mM GSH measured after 50 mins by HPLC analysis relative to control. Conditions: buffer, pH 7.4, 50 min.
Data set [28] can be described thus: Prodrug activation in PBS at pH 7.4 assessed as drug release at 10 uM in presence of 2 mM GSH measured after 60 mins by HPLC analysis relative to control. Particulars: buffer, pH 7.4, 1 h.
Data set [29] is described as follows: Prodrug activation in PBS at pH 7.4 assessed as drug release by measuring maximal fluorescence change at 10 uM in presence of 2 mM GSH measured after 60 to 300 mins relative to control. Particulars: buffer, pH 7.4, 10 µM, time 60-300 min.
A short description of data set [30]: Prodrug activation in PBS at pH 7.4 assessed as drug release at 10 uM in presence of 2 mM GSH measured after 60 to 300 mins by HPLC analysis relative to control. Particulars: buffer, pH 7.4, 10 µM, time 60-300 min.

On to `C=C(COC(=O)OCc1ccccc1)C(=O)c1ccc2cc(N(C)C)ccc2c1`, for which the Activity was 3.9% in data set [1]; 41% in [2]; 65.4% in [3]; 83.6% in data set [4]; 96.5% in data set [5]; 96.5% in data set [6]. For the same molecule, the Activity in [7] came out at 97.4%; in data set [8], 0%; in [9], 93.4%; in data set [10], 94.5%; in [11] it was 95.5%; in data set [12], 94.6%. Further, the results for the Activity in data set [13] and in data set [14] were 94.6% and 95.1%, respectively.
Regarding `C=C(CSc1ccccc1)C(=O)c1ccc2cc(N(C)C)ccc2c1`, the Activity was determined as 3.1% in data set [1]; 27.2% in data set [2]; 53.5% in data set [3]; 72.2% in data set [4]; 86.3% in data set [5]; 93.7% in [6]. The Activity in [7] is 96.5%; in [8], 0%; in [9] it was 42.6%; in data set [10] it was 76.6%; in data set [11] it was 90.6%; in [12], 95.1%. The Activity in [13] was 94.8%; in data set [14] it was 95.4%.
For `C=C(COC(=O)Nc1ccccc1)C(=O)c1ccc2cc(N(C)C)ccc2c1`, the Activity in [1] was determined as 2.7%; in data set [2], 39.3%; in data set [3] it was 64.6%; in data set [4], 79.9%; in data set [5], 88.9%; in [6], 94.6%. Also, the Activity in data set [7] turned out to be 96.5%; in [8], 0%; in data set [9] it was 82.6%; in data set [10] it was 91.1%; in data set [11], 96.5%; in data set [12], 97.1%. The figures for the Activity in data set [13] and in [14] were 97.9% and 98.2%, respectively.
Turning to `C=C(COc1ccccc1)C(=O)c1ccc2cc(N(C)C)ccc2c1`, the Activity in data set [1] is on record as 0.7%; in [2] it was 38.8%; in [3], 70.1%; in [4], 87.9%; in data set [5] it was 95.5%; in [6], 97.3%. Further, the Activity turned out to be 99.1% in data set [7]; 0% in [8]; 91.2% in [9]; 93.5% in [10]; 93.5% in [11]; 92.7% in data set [12]. Also, the values for the Activity in data set [13] and in data set [14] were 93.2% and 93.5%, respectively.
On to `C=C(COC(=O)c1ccccc1)C(=O)c1ccc2cc(N(C)C)ccc2c1`, for which the Activity is 1.4% in [15]; 40.1% in data set [16]; 71.2% in [17]; 88.1% in data set [18]; 95.7% in [19]; 97.8% in data set [20]. In addition, the Activity in data set [21] is on record as 83.2%; in data set [22], 0%; in [23] it was 92.8%; in data set [24], 97.3%; in data set [25], 98.6%; in data set [26], 98.7%. Besides, the Activity came to 99.9% in [27] and 72.1% in data set [28].
As for `C=C(COC(=O)Cc1ccccc1)C(=O)c1ccc2cc(N(C)C)ccc2c1`, the Activity in data set [1] is recorded as 1.2%; in [2], 42.4%; in data set [3], 71.5%; in data set [4], 89.2%; in [5], 95.3%; in [6], 97.7%. Further, the Activity in data set [7] is 98.1%; in data set [8] it was 0%; in [9], 94.3%; in data set [10], 97.1%; in data set [11], 98.3%; in [12], 97.5%. Moreover, the Activity came out at 98.7% in [13] and 99.1% in [14].
With `C=C(CSCc1ccccc1)C(=O)c1ccc2cc(N(C)C)ccc2c1`, the Activity in data set [15] is 4.8%; in data set [16] it was 14.8%; in [17], 22.1%; in data set [18], 27.5%; in data set [19], 42.2%; in data set [20] it was 78.3%. For the same molecule, the Activity is 98.6% in data set [29]; 0% in data set [22]; 5.6% in data set [23]; 13.9% in data set [24]; 19.9% in data set [25]; 35.2% in data set [26]. In addition, the Activity in data set [27] is on record as 68.6%; in data set [30] it was 99.9%.
Regarding `C=C(CN(C)Cc1ccccc1)C(=O)c1ccc2cc(N(C)C)ccc2c1`, the Activity in data set [1] is 3.8%; in data set [2], 50.5%; in data set [3], 72.5%; in [4], 85.1%; in [5], 93.5%; in data set [6], 96.5%. Moreover, the Activity in data set [7] was 97.1%; in [8], 0%; in data set [9], 88.2%; in data set [10] it was 91.8%; in data set [11] it was 92.2%; in data set [12], 92%. Besides, the Activity in data set [13] turned out to be 93.1%; in data set [14], 92.4%.
Take `C=C(C[N+](C)(C)Cc1ccccc1)C(=O)c1ccc2cc(N(C)C)ccc2c1.[Br-]`: the Activity in data set [1] worked out at 0.5%; in [2], 48.1%; in data set [3], 90.6%; in data set [4], 90.6%; in [5] it was 97.2%; in data set [6], 98.4%. The Activity in [7] is 99%; in data set [8], 0%; in data set [9], 95.6%; in [10], 97.8%; in data set [11], 98.2%; in [12] it was 98.5%. In addition, the Activity in data set [13] was 99.6%; in [14] it was 98.9%.
